These results are taken from patent US9340530B2, “Preparation and use of bicyclic himbacine derivatives as PAR-1 receptor antagonists” (Merck, Sharp & Dohme Corp., priority 2012, dated 2016).

SMILES strings stand for the structures.

Assay [1] deals with thrombin receptor (PAR-1 receptor) (Homo sapiens (Human), UniProt P25116). The assay is described as follows: High throughput thrombin receptor radioligand binding assay ([3H]haTRAP, platelet membranes). As to conditions: [3H]haTRAP binding to platelet membranes. The procedure:
The following binding assays were used to determine the ability of the inventive compounds to inhibit the PAR-1 receptor.
A(pF-F)R(ChA)(hR)(I2—Y)—NH2 (1.03 mg) and 10% Pd/C (5.07 mg) were suspended in DMF (250 μl) and diisopropylethylamine (10 μL). The vessel was attached to the tritium line, frozen in liquid nitrogen and evacuated. Tritium gas (342 mCi) was then added to the flask, which was stirred at room temperature for 2 hours. At the completion of the reaction, the excess tritium was removed and the reacted peptide solution was diluted with DMF (0.5 ml) and filtered to remove the catalyst. The collected DMF solution of the crude peptide was diluted with water and freeze dried to remove the labile tritium. The solid peptide was redissolved in water and the freeze drying process repeated. The tritiated peptide ([^3H]haTRAP) was dissolved in 0.5 ml of 0.1% aqueous TFA and purified by HPLC using the following conditions: column, Vydac™ C18, 25 cm×9.4 mm I.D.; mobile phase, (A) 0.1% TFA in water, (B) 0.1% TFA in CH3CN; gradient, (A/B) from 100/0 to 40/60 over 30 min; flow rate, 5 ml/min; detection, UV at 215 nm. The radiochemical purity of [^3H]haTRAP was 99% as analyzed by HPLC. A batch of 14.9 mCi at a specific activity of 18.4 Ci/mmol was obtained.
Platelet membranes were prepared using a modification of the method of Natarajan et al. (Natarajan et al, Int. J. Peptide Protein Res. 45:145-151 (1995)) from 20 units of platelet concentrates obtained from the North Jersey Blood Center (East Orange, N.J.) within 48 hours of collection. All steps were carried out at 4° C. under approved biohazard safety conditions. Platelets were centrifuged at 100×g for 20 minutes at 4° C. to remove red cells. The supernatants were decanted and centrifuged at 3000×g for 15 minutes to pellet platelets. Platelets were re-suspended in 10 mM Tris-HCl, pH 7.5, 150 mM NaCl, 5 mM EDTA, to a total volume of 200 ml and centrifuged at 4400×G for 10 minutes. This step was repeated two additional times. […] Protein concentration was determined by a Lowry assay (Lowry et al., J. Biol. Chem., 193:265-275 (1951)). […]

A further assay addresses PAR1 (Homo sapiens (Human), UniProt P25116). The assay is described as follows: Par-1 FLIPR assay (calcium, HEK 293 cells, PAR1 activating peptide). In kind it is cell-based. The settings on record: PAR1 selective receptor-activating peptide at 80% activation. The procedure:
HEK 293 Cells were grown in media containing DMEM, 10% FBS pen/strep/L-Glutamine and non-essential amino acids. The cells were plated in 384-well PDL coated plates at 12000 cells/well and incubated overnight at 37° C./5% CO2. Media was then removed from the cells, which were then incubated with buffer (Hank's containing HEPES and Chaps) containing FLIPR calcium-5 dye, made with buffer containing probenecid, for 60 minutes at 37° C. Varying concentrations of compound in a final concentration of 5% DMSO were then added to the cells and incubated at 25° C. for 30 minutes. […] The FLIPR reads at an excitation wavelength of 480 nm and an emission wavelength of 535 nm, and performs 60 scans over a 1-2 min reading time. The data were analyzed by taking the peak signal over a portion of the range of the 60 scans and dividing this signal by the minimum signal for that same range.

Sequence of PAR1 (P25116 22-425): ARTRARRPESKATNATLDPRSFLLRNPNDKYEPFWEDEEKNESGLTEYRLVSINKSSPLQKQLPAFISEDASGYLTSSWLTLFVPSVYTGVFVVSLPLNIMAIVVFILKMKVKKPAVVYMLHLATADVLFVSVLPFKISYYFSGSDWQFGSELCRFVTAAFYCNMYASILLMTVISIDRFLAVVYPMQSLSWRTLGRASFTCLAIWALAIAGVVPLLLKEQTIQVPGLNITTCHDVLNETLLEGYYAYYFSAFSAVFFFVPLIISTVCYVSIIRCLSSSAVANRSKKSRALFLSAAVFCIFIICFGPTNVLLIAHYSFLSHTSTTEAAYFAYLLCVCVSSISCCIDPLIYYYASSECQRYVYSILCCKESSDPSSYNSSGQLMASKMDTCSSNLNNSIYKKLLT
Sequence of thrombin receptor (PAR-1 receptor) (P25116 22-425): as above

The Ki is a dissociation constant, usually derived from enzyme kinetics or from competition with a known ligand. In general, IC50 refers to the concentration that inhibits the measured activity by half. On to `C[C@H]1OC(=O)C2CC(F)(F)[C@@H](C)[C@H](/C=C/c3ccc(-c4cccc(F)c4)cn3)C21` (stereo partly shown) [Example 2], for which the Ki in assay [1] was determined as 3 nM. On PAR1, the IC50 amounted to 5.01 nM. The matching figures for `C[C@H]1OC(=O)[C@]2(O)CC(F)(F)[C@@H](C)[C@H](/C=C/c3ccc(-c4cccc(F)c4)cn3)[C@H]12` [Example 10]: 3 nM and 8.1 nM.

Take `C[C@H]1OC(=O)[C@]2(C(=O)NCCO)CC(F)(F)[C@@H](C)[C@H](/C=C/c3ccc(-c4cccc(F)c4)cn3)[C@H]12` [Example 13]: in assay [1], the Ki is 3 nM. Also, at PAR1, the IC50 is 17 nM. For the compound `C[C@H]1OC(=O)[C@]2(NC(=O)c3ccccc3)CC(F)(F)[C@@H](C)[C@H](/C=C/c3ccc(-c4ccccc4C#N)cn3)[C@H]12` [Example 63], the IC50 on PAR1 worked out at 2.3 nM.

As to `C[C@H]1OC(=O)[C@]2(NC(=O)c3ccc(C#N)cc3)CC(F)(F)[C@@H](C)[C@H](/C=C/c3ccc(-c4ccccc4C#N)cn3)[C@H]12` [Example 64], the IC50 on PAR1 was found to be 2.9 nM. Take `C[C@H]1OC(=O)[C@]2(NC(=O)C3CC3)CC(F)(F)[C@@H](C)[C@H](/C=C/c3ccc(-c4ccccc4C#N)cn3)[C@H]12` [Example 66]: the IC50 at PAR1 was found to be 3.5 nM. On to `CC1[C@H](/C=C/c2ccc(-c3ccccc3C#N)cn2)C2[C@@H](C)OC(=O)[C@@]2(NC(=O)c2ccn(C)n2)CC1(F)F` (stereo partly shown) [Example 67], for which the IC50 at PAR1 was determined as 3.7 nM.

Take `C[C@H]1OC(=O)[C@]2(S(C)(=O)=O)CC(F)(F)[C@@H](C)[C@H](/C=C/c3ccc(-c4ccccc4C#N)cn3)[C@H]12` [Example 70]: the 50% inhibitory concentration (IC50) on PAR1 was determined as 15.6 nM.

Take `C[C@H]1OC(=O)[C@]2(Br)CC(F)(F)[C@@H](C)[C@H](/C=C/c3ccc(-c4ccccc4C#N)cn3)[C@H]12` [Example 71]: the IC50 at PAR1 amounted to 4.8 nM.

Turning to `CO[C@@]12CC(F)(F)[C@@H](C)[C@H](/C=C/c3ccc(-c4ccccc4C#N)cn3)[C@@H]1[C@@H](C)OC2=O` [Example 72], at PAR1, the IC50 is 2.5 nM. On the same count and under the same terms, under `Cc1cccc(-c2ccc(/C=C/[C@@H]3[C@@H]4[C@@H](C)OC(=O)[C@]4(N)CC(F)(F)[C@H]3C)nc2)c1C#N` [Example 73] stands 3.3 nM; under `C[C@H]1OC(=O)[C@]2(N)CC(F)(F)[C@@H](C)[C@H](/C=C/c3ccc(-c4ccccc4-c4nnn[nH]4)cn3)[C@H]12` [Example 74], 872 nM; under `C[C@H]1OC(=O)[C@]2(CN)CC(F)(F)[C@@H](C)[C@H](/C=C/c3ccc(-c4ccccc4C#N)cn3)[C@H]12` [Example 76], 2.3 nM.
